From patent US9828379B2 (priority 2013, dated 2017)

Assays:
Test in all cases: In vitro competitive activity-based protein profiling (Table 2, % inhibition at 1 μM)
Type in all cases: biochemical
[1] = target: T1, MAGL (Mus musculus, UniProt O35678); details: read-out: % Inhibition at 1 μM MAGL
T1 sequence (O35678 1-303): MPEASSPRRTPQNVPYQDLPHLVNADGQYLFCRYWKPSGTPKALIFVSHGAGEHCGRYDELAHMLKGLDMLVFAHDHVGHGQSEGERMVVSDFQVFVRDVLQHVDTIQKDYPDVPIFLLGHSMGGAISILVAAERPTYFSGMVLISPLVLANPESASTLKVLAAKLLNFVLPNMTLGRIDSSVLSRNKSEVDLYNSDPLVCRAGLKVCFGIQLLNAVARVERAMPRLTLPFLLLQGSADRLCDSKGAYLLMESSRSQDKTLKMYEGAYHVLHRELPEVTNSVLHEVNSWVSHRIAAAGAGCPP
Experimental: After 30 min, FP—Rh (1.0 μL, 50 μM in DMSO) was added and the mixture was incubated for another 30 min at 37° C. Reactions were quenched with SDS loading buffer (50 μL-4×) and run on SDS-PAGE.
Cell lysates were diluted with mock proteomes for use in competitive ABPP experiments.

[2] = target: T2, ABHD6 (Mus musculus, UniProt Q8R2Y0); details: read-out: % Inhibition at 1 μM ABHD6
T2 sequence (Q8R2Y0 1-336): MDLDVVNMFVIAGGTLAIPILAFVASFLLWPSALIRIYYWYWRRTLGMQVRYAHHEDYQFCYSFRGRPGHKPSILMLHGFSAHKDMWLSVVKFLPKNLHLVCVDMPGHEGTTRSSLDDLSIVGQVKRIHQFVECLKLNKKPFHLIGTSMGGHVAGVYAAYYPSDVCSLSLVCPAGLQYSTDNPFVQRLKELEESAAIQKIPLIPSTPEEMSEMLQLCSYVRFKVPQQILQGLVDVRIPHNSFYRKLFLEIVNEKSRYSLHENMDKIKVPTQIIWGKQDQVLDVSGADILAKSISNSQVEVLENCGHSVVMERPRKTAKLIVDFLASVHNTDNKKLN
Experimental: (§1) After 30 min, FP—Rh (1.0 μL, 50 μM in DMSO) was added and the mixture was incubated for another 30 min at 37° C. Reactions were quenched with SDS loading buffer (50 μL-4×) and run on SDS-PAGE. Following gel imaging, serine hydrolase activity was determined by measuring fluorescent intensity of gel bands corresponding to MAGL, ABHD6 and FAAH using ImageJ 1.43 u software.
(§2) hMAGL was expressed in HEK293T cells according to previously reported methods (see Niphakis, Long, and Blankman, J. L., et al. (2007) Chem. Biol. 14:1347-1356). Cell lysates were diluted with mock proteomes for use in competitive ABPP experiments.

[3] = target: T3, FAAH (Mus musculus, UniProt O08914); details: read-out: % Inhibition at 1 μM FAAH
T3 sequence (O08914 1-579): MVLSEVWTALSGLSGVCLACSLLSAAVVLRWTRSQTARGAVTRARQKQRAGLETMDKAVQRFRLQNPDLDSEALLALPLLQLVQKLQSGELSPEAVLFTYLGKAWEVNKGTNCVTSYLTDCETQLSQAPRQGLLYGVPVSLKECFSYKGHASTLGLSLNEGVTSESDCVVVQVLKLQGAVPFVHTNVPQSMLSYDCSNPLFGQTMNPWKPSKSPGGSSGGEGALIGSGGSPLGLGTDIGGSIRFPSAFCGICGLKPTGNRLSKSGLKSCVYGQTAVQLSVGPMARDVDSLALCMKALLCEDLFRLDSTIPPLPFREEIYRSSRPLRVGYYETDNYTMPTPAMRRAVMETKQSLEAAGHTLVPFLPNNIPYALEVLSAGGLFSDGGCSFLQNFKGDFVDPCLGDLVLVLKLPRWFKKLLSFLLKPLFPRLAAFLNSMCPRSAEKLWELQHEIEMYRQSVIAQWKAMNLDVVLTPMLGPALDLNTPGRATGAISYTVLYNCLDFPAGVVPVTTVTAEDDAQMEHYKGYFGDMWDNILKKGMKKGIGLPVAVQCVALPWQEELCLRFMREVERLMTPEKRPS
Experimental: as §1, §2

SMILES | inhibition at 1 µM [1] [%] | inhibition at 1 µM [2] [%] | inhibition at 1 µM [3] [%]
O=C(ON1C(=O)CCC1=O)N1CC2CN(Cc3ccc(Cl)cc3N3CCC(C(=O)N4CCCC4)CC3)CC2C1 (stereo not drawn) [Example 111, 2,5-Dioxopyrrolidin-1-yl 5-[(4-chloro-2-[4-[(pyrrolidin-1-yl)carbonyl]piperidin-1-yl]phenyl)methyl]-octahydropyrrolo[3,4-c]pyrrole-2-carboxylate] | 25 to 75 | < 25 | < 25
O=C(ON1C(=O)CCC1=O)N1CC2CN(Cc3ccc(Cl)cc3N3Cc4cccnc4C3)CC2C1 (stereo not drawn) [Example 107, 2,5-Dioxopyrrolidin-1-yl 5-[(4-chloro-2-[5H,6H,7H-pyrrolo[3,4-b]pyridin-6-yl]phenyl)methyl]-octahydropyrrolo[3,4-c]pyrrole-2-carboxylate] | 25 to 75 | 25 to 75 | 25 to 75
CC(C)c1cc(CN2CC3CN(C(=O)ON4C(=O)CCC4=O)CC3C2)n(C2CCOCC2)n1 (stereo not drawn) [Example 124, 2,5-Dioxopyrrolidin-1-yl 5-[[1-(oxan-4-yl)-3-(propan-2-yl)-1H-pyrazol-5-yl]methyl]-octahydropyrrolo[3,4-c]pyrrole-2-carboxylate] | 25 to 75 | < 25 | < 25
Cn1nc(-c2ccccc2)cc1CN1CC2CN(C(=O)ON3C(=O)CCC3=O)CC2C1 (stereo not drawn) [Example 197, 2,5-dioxopyrrolidin-1-yl 5-((1-methyl-3-phenyl-1H-pyrazol-5-yl)methyl)hexahydropyrrolo[3,4-c]pyrrole-2(1H)-carboxylate] | < 25 | < 25 | < 25
CCN1CCN(c2cccc(CN3CC4CN(C(=O)ON5C(=O)CCC5=O)CC4C3)c2C)CC1 (stereo not drawn) [Example 146] | 25 to 75 | < 25 | < 25
O=C(OC(C(F)(F)F)C(F)(F)F)N1CC2CN(C(c3ccc(Cl)cc3)c3ccc(Cl)cc3)CC2C1 (stereo not drawn) [Example 8, 1,1,1,3,3,3-Hexafluoropropan-2-yl 5-[bis(4-chlorophenyl)methyl]-octahydropyrrolo[3,4-c]pyrrole-2-carboxylate] | 25 to 75 | 25 to 75 | < 25
CCn1cc(CN2CC3CN(C(=O)OC(C(F)(F)F)C(F)(F)F)CC3C2)c(-c2ccccn2)n1 (stereo not drawn) [Example 70, 1,1,1,3,3,3-Hexafluoropropan-2-yl 5-[[1-ethyl-3-(pyridin-2-yl)-1H-pyrazol-4-yl]methyl]-octahydropyrrolo[3,4-c]pyrrole-2-carboxylate] | 25 to 75 | < 25 | < 25
O=C(ON1C(=O)CCC1=O)N1CC2CN(Cc3ccc(F)cc3N3CCCC3)CC2C1 (stereo not drawn) [Example 90, 2,5-Dioxopyrrolidin-1-yl 5-[[4-fluoro-2-(pyrrolidin-1-yl)phenyl]methyl]-octahydropyrrolo[3,4-c]pyrrole-2-carboxylate] | 25 to 75 | < 25 | 25 to 75
Cc1cccc(-c2cc(CN3CC4CN(C(=O)ON5C(=O)CCC5=O)CC4C3)n(C)n2)c1 (stereo not drawn) [Example 199, 2,5-dioxopyrrolidin-1-yl 5-((1-methyl-3-(m-tolyl)-1H-pyrazol-5-yl)methyl)hexahydropyrrolo[3,4-c]pyrrole-2(1H)-carboxylate] | 25 to 75 | < 25 | < 25
O=C(ON1C(=O)CCC1=O)N1CC2CN(Cc3ccc(Cl)cc3N3CCn4ncnc4C3)CC2C1 (stereo not drawn) [Example 108, 2,5-Dioxopyrrolidin-1-yl 5-(4-chloro-2-(5,6-dihydro-[1,2,4]triazolo[1,5-a]pyrazin-7(8H)-yl)benzyl)-hexahydropyrrolo[3,4-c]pyrrole-2(1H)-carboxylate] | < 25 | < 25 | < 25
CC(C)c1ccc(CN2CC3CN(C(=O)ON4C(=O)CCC4=O)CC3C2)c(N2CCCC2)c1 (stereo not drawn) [Example 98, 2,5-Dioxopyrrolidin-1-yl 5-[[4-(propan-2-yl)-2-(pyrrolidin-1-yl)phenyl]methyl]-octahydropyrrolo[3,4-c]pyrrole-2-carboxylate] | 25 to 75 | < 25 | < 25
Cc1cccc(CN2CC3CN(C(=O)ON4C(=O)CCC4=O)CC3C2)c1N1CCCCC1 (stereo not drawn) [Example 105, 2,5-Dioxopyrrolidin-1-yl 5-[[3-methyl-2-(piperidin-1-yl)phenyl]methyl]-octahydropyrrolo[3,4-c]pyrrole-2-carboxylate] | 25 to 75 | < 25 | < 25
O=C(ON1C(=O)CCC1=O)N1CC2CN(Cc3ccc(Cl)cc3N3CCCC3)CC2C1 (stereo not drawn) [Example 94, 2,5-Dioxopyrrolidin-1-yl 5-[[4-chloro-2-(pyrrolidin-1-yl)phenyl]methyl]-octahydropyrrolo[3,4-c]pyrrole-2-carboxylate] | 25 to 75 | < 25 | 25 to 75
CC(=O)N1CCC(n2nc(C)cc2CN2CC3CN(C(=O)ON4C(=O)CCC4=O)CC3C2)CC1 (stereo not drawn) [Example 122, 2,5-Dioxopyrrolidin-1-yl 5-[[1-(1-acetylpiperidin-4-yl)-3-methyl-1H-pyrazol-5-yl]methyl]-octahydropyrrolo[3,4-c]pyrrole-2-carboxylate] | < 25 | < 25 | < 25
CC(=O)N1CCN(c2cc(F)ccc2CN2CC3CN(C(=O)ON4C(=O)CCC4=O)CC3C2)CC1 (stereo not drawn) [Example 92, 2,5-Dioxopyrrolidin-1-yl 5-[[2-(4-acetylpiperazin-1-yl)-4-fluorophenyl]methyl]-octahydropyrrolo[3,4-c]pyrrole-2-carboxylate] | < 25 | < 25 | < 25
CC(=O)N1CCN(c2cccc(CN3CC4CN(C(=O)ON5C(=O)CCC5=O)CC4C3)c2C)CC1 (stereo not drawn) [Example 143, 2,5-dioxopyrrolidin-1-yl 5-[[3-(4-acetylpiperazin-1-yl)-2-methylphenyl]methyl]-octahydropyrrolo[3,4-c]pyrrole-2-carboxylate] | < 25 | < 25 | < 25
O=C(ON1C(=O)CCC1=O)N1CC2CN(Cc3ccc(C(=O)N4CCC4)cc3Cl)CC2C1 (stereo not drawn) [Example 165, 2,5-dioxopyrrolidin-1-yl5-(4-(azetidine-1-carbonyl)-2-chlorobenzyl)-hexahydropyrrolo[3,4-c]pyrrole-2(1H)-carboxylate] | 25 to 75 | < 25 | < 25
O=C(ON1C(=O)CCC1=O)N1CC2CN(Cc3ccc(Cl)cc3N3CCC3)CC2C1 (stereo not drawn) [Example 113, 2,5-Dioxopyrrolidin-1-yl 5-[[2-(azetidin-1-yl)-4-chlorophenyl]methyl]-octahydropyrrolo[3,4-c]pyrrole-2-carboxylate] | > 75 | 25 to 75 | < 25
CCn1cc(CN2CC3CN(C(=O)OC(C(F)(F)F)C(F)(F)F)CC3C2)c(C(=O)N2CCOCC2)n1 (stereo not drawn) [Example 76, 1,1,1,3,3,3-Hexafluoropropan-2-yl 5-((1-ethyl-3-(morpholine-4-carbonyl)-1H-pyrazol-4-yl)methyl)hexahydropyrrolo[3,4-c]pyrrole-2(1H)-carboxylate] | 25 to 75 | < 25 | < 25
